# Non-standard residues stand in square brackets, D forms with d. Residues, ends and D or L forms follow the SMILES beside them. *: point of attachment. Phe(F5) = N[C@@H](Cc1c(F)c(F)c(F)c(F)c1F)C(=O)O; hArg = N=C(N)NCCCC[C@H](N)C(=O)O; 12Ado = NCCCCCCCCCCCC(=O)O; Nle = CCCC[C@H](N)C(=O)O; Orn = NCCC[C@H](N)C(=O)O; Abu = CC[C@H](N)C(=O)O; PhAc = O=C(Cc1ccccc1)*
# How the values were obtained:
# [1] = system: MX-1 cells; experiment: In vitro cell viability, breast cancer MX-1; type: cell-based, human; conditions: 5 μM, 72 h
# Procedure: The inhibitory effects of the various synthesized GHRH antagonists were tested in cell proliferation assays in various human cancer cell lines including stomach cancer (KATOIII, N87), colon cancer (HT-29), urothelial cancer (J82, RT4), pancreatic cancer (PANC-1, CFPAC-1), prostatic cancer (PC3), breast cancer (MX-1, HCC1806), ovarian cancer (SK-OV-3, OVCAR-3) and lung cancer (HCC827, H460).
# Cell culture. Human cancer cell lines including pancreatic (PANC-1 and CFPAC-1), lung (HCC827 and H460), stomach (NCI-N87 and KATOIII), urothelial (J82, RT4), prostatic (PC3), breast (MX-1 and HCC 1806), colorectal (HT-29), and ovarian (SK-OV-3 and OVCAR-3) were obtained from the American Type Culture Collection (ATCC) and cultured at 37° C. in a humidified 95% air/5% CO2 atmosphere in the medium recommended by ATCC.
# In vitro cell viability. Cell viability was analyzed as follows: cancer cells including pancreatic (PANC-1 and CFPAC-1), lung (HCC827 and H460), stomach (NCI-N87 and KATOIII), urothelial (J82, RT4), prostatic (PC3) and breast (MX-1 and HCC 1806), colorectal (HT-29) and ovarian (SK-OV-3 and OVCAR-3) were grown on 96 well plates to ˜60% confluence, the cells were starved for 24 h in culture medium containing 0.5% FBS. Cells were then treated with GHRH antagonists MIA602 AVR compounds at concentrations of 1, 2.5 or 5 μM, or vehicle (0.1% DMSO) in quintuplicates for 72 hours. The medium was replaced every 48 hours. Cell viability was measured using CellTiter 96 aqueous one solution kit (Promega). Inhibitory effects of tested AVR compounds in comparison to that of MIA602 are presented as inhibitory potency.
# Inhibitory effects of selected AVR compounds in comparison to that of MIA602 are presented as inhibitory potency (e.g., percentage of inhibition). […] The cell lines tested including lung cancer HCC827 (FIG. 2A), pancreatic cancer CFPAC-1 (FIG. 2B), stomach cancer N87 (FIG. 2C), colon cancer HT-29 (FIG. 2D), breast cancers MX-1 and HCC1806 (FIGS. 2E, F). Based on the results of cell proliferation assay after cancer cells were treated with antagonist at concentration of 5 μM for 72H, the relative inhibitory potency of AVR antagonists in comparison to MIA-602 is summarized in Table 3 A and B. Over 60 AVR compounds were tested in 12 cancer cell lines.
# Based on the results of cell proliferation assay after cancer cells were treated with antagonist at concentration of 5 µM for 72H, * at concentration of 2 µM for 72 H.
# [2] = system: SK-OV-3 xenograft; experiment: Xenograft tumor growth in nude mice, ovarian cancer SK-OV-3; type: in vivo; conditions: Panel L, 7 weeks, 5 μg/day s.c.
# Procedure: The peptides' activity was compared with GHRH antagonist MIA-602. All statistical analyzses were performed from comparing GHRA antagonists to non-treated tumor (control).
# Peptides and chemicals. GHRH antagonists MIA-602 and AVR-GHRH antagonists (see Table 2 above) were synthesized by solid phase methods and purified by HPLC. The peptides were dissolved in DMSO and further diluted in 10% 1, 2-propanediol. The final concentration of peptides was 50 µg/ml in 10% 1, 2-propanediol containing 0.1% of DMSO.
# Cell culture. Human cancer cell lines including pancreatic (PANC-1 and CFPAC-1), lung (HCC827 and H460), stomach (NCI-N87), prostate (PC3), brest (MX-1 and HCC-1806), colorectal (HT-29), and ovarian (SK-OV-3 and OVCAR-3) were obtained from the American Type Culture Collection (ATCC) and cultured at 37° C. in a humidified 95% air/5% CO2 atmosphere in the medium recommended by ATCC.
# Xenograft models of human cancers in nude mice. Female athymic (NCr nu/nu) nude mice, 5-to 6-weeks-old, obtained from the Envigo labs (Tampa, FL), were housed in laminar airflow cabinets under pathogen-free conditions with a 12-h light/12-h dark schedule, and were fed autoclaved standard chow and water. To generate mice with xenografted tumors, tumor xenografts were initiated by subcutaneous (s.c.) injection of […] human cancer cells into female nude mice. After about 4 weeks the resulting tumors were dissected and collected after removing necrosis tissues. The tumors were then cut into particles with size of ˜3 mm3 and transplanted s.c. by trocar needle into experimental animals. When tumors grew to the size of 50-60 mm3 (by volume), mice were randomized into groups and treated daily for 4-8 weeks by subcutaneous administration of 5 μg of GHRH antagonists MIA-602 or AVR-compounds (2-10 μg as indicated), or vehicle solutions (0.1% DMSO in 10% 1, 2-propanediol) respectively. Tumor sizes were measured weekly.
# Statistical analysis. One-way ANOVA followed by Bonferroni comparison were performed. Data are expressed as Mean±SEM. To determine statistical significance between animal groups, two-tailed Student's t-test was conducted. Differences were considered significant when p<0.05.
# Results. […] FIG. 1A-N represents in vivo inhibition of tumor growth during the treatment with GHRH antagonist MIA-602 and selected AVR antagonists in nude mice xenografted with various human tumors including pancreatic cancer PANC-1 (FIG. 1A) and CFPAC-1 (FIG. 1I); lung cancer HCC827 (FIGS. 1B, C) and H460 (FIG. 1H); stomach cancer N87 (FIGS. 1D-F); colon cancer HT-29 (FIG. 1G); breast cancer MX-1 and HCC-1806 (FIGS. 1J, K); ovarian cancer SK-OV-3 and OVACAR-3 (FIGS. 1L, M) and prostate cancer PC3 (FIG. 1N). See also Table 5.
# [3] = system: mouse lung fibroblasts (Mlg 2908); experiment: Cellular respiration, Seahorse XF Cell Mito Stress Test; type: cell-based; conditions: 24 hours
# Procedure: Lung fibroblasts. Newborn mouse lung fibroblasts (Mlg 2908) were obtained from the American Type Culture Collection, Manassas, VA and cultured in Eagle's minimal essential medium. Cells were grown in 6-well plates before incubation with 1 or 5 μM MIA-602 or vehicle, RNA isolation, and oxygen consumption measurements.
# Cellular respiration. The effects of MIA-602 on mouse lung fibroblast oxygen consumption was measured using the Agilent Seahorse XF Cell Mito Stress Test (Agilent Technologies, Santa Clara, CA) (Divakaruni A, Paradyse A, Ferrick D, Murphy A, Jastroch M (2014). Methods in Enzymology 547:309-354). Fibroblasts were incubated with vehicle, 1 or 5 μM MIA-602 for 24 hours before measurement of oxygen consumption. One day before assay 80,000 fibroblasts were seeded into Seahorse 24-well plates (n=6 wells per condition). Basal respiration was established and oligomycin, FCCP and rotenone plus antimycin A were added sequentially to measure ATP production, uncoupled respiration; and, non-mitochondrial oxygen consumption (Wangpaichitr, Wu C, Li Y, Nguyen D, Kandemir H, Shah S, Chen S, Feun L, Prince J, Kuo M, Savaraj N (2017). Oncotarget 8(30):49275-49292).
compound,measurement,setting,value
"CCCC[C@H](NC(=O)[C@@H](NC(=O)[C@H](CC(=O)O)NC(=O)[C@H](CCC(N)=O)NC(=O)[C@H](CC(C)C)NC(=O)[C@H](CC(C)C)NC(=O)[C@H](CCCN)NC(=O)[C@H](Cc1c[nH]cn1)NC(=O)[C@H](C)NC(=O)[C@H](CO)NC(=O)[C@H](CC(C)C)NC(=O)[C@H](CCC(N)=O)NC(=O)[C@H](CC)NC(=O)[C@H](CC(C)C)NC(=O)[C@@H](NC(=O)[C@H](CCCN)NC(=O)[C@H](Cc1c[nH]cn1)NC(=O)[C@H](Cc1ccc(OC)cc1)NC(=O)[C@H](CCCCNC(=N)N)NC(=O)[C@H](C)NC(=O)[C@@H](NC(=O)[C@H](Cc1c(F)c(F)c(F)c(F)c1F)NC(=O)[C@@H](NC(=O)[C@H](C)NC(=O)[C@H](CC(=O)O)NC(=O)[C@@H](CCCNC(=N)N)NC(=O)[C@H](Cc1ccc(O)cc1)NC(=O)CCCCCCCCCCCNC(=O)Cc1ccccc1)[C@@H](C)CC)[C@@H](C)O)C(C)C)[C@@H](C)CC)C(=O)N[C@H](CCCNC(=N)N)C(=O)N[C@@H](CCCCNC(=N)N)C(N)=O [MIA-602, PhAC-Ada, Tyr D-Arg, Asp, Ala, Ile, 5FPhe, Thr, Ala, Har, Tyr(Me), His, Orn, Val, Leu, Abu, Gin, Leu, Ser, Ala, His, Orn, Leu, Leu, Gin, Asp, Ile, Nle, D-Arg, Har NH2, reference compound] ({PhAc-12Ado}-Y[dR]DAI[Phe(F5)]TA[hArg]Y(Me)H[Orn]VL[Abu]QLSAH[Orn]LLQDI[Nle][dR][hArg]-NH2)","In vitro relative inhibitory potency in comparison to MIA-602, MX-1",[1]; Table 3B,1
same,"Relative inhibitory potency, Breast MX-1","[1]; relative to MIA602 = 1, Table 3A",1
same,Tumor Growth %,[2],810.1%
same,% Inhibition,[2]; vs control,38.0%
same,Spare respiratory capacity,[3]; 5 μM,increased
same,Basal oxygen consumption / basal respiration,"[3]; 5 μM, compared to vehicle",increased basal oxygen consumption
same,"Maximal, uncoupled respiration after FCCP","[3]; 5 μM, compared to vehicle",increased
same,Non-mitochondrial respiration after antimycin A and rotenone,[3]; 1 and 5 μM,appeared to increase non-mitochondrial respiration

# From patent publication US11993640B2, “Treating inflammatory lung disease” (United States Government as represented by the Department …, priority 2019, dated 2024)
